Experimental data as given in publication PMC10906223 (JCI Insight, 2024).
Where “and” joins values, the source holds several entries; their conditions need not be identical. Equal entries are not always repeated.

Tests used:
[1] = test system: murine dispersed islet cells; assay: Insulin secretion from murine dispersed islet cells; type: cell-based, mouse; settings: for Relative secretion of insulin: one value per mouse
Protocol: Pancreata of nondiabetic C57BL/6J mice were digested using collagenase P (Roche Diagnostics, catalog 11213873001), and islets were manually picked up using a stereomicroscope (ZEISS Stemi 305). […] Isolated mouse islets or provided human islets were dispersed as described ([28]). Briefly, 100–120 islets were washed 2 times using modified HBSS, then dispersed in 600 μL Accutase (Innovative Cell Technologies, catalog AT-104) by gently pipetting up and down for 7 minutes at 37°C. […] Following refreshing of KRBH, cells were dispensed in 8 microfuge tubes (2,000 cells/tube) and treated with WCDD301, preclustered Ephrin-A5 Fc, or preclustered Fc in the presence or absence of the competitive inhibitor of EphA4 receptor, rhyncophylline ([60]) (MilliporeSigma, catalog SML2345). In the presence or absence of these effectors, secretion assay was performed sequentially as shown in Supplemental Table 5. […] Preclustering of Ephrin-A5 Fc was done by mixing Ephrin-A5 Fc or Fc alone (BioLegend, catalog 790102) with anti-Fc antibody (Invitrogen, catalog A16086) (1:10 molar ratio) 20 minutes before treatment ([62]). […] Shedding of cleaved EphA4 was measured from the cell culture medium. Experiments were performed by dispersion of 200 islets, and EphA4 levels in media were measured by EphA4 ELISA (ABclonal, catalog RK06572).

[2] = test system: isolated islets of donors with T1D; assay: Insulin secretion from isolated islets of donors with T1D; type: cell-based, human; settings: for Secretion of insulin: isolated islets, T1D donors, one value per donor, Figure 2I;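 for secretion of insulin: insulin concentration in collected medium by Lumit immunoassay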
Protocol: The Integrated Islet Distribution Program provided us human donor islets with their characteristics (Supplemental Table 6). Islets were centrifuged at 500g for 3 minutes, resuspended in CMRL 1066 medium (Gibco, catalog 1150-037) containing 11 mM glucose, and rested in an incubator overnight.
For the hormone secretion assay, islets or dispersed islet cells were adapted in KRBH buffer containing 11 mM glucose for 1 hour. Then, after 2 washes in HBSS containing 11 mM glucose, islets or cells were treated in the following sequential order in the presence or absence of WCDD301: incubation in KRBH (1 mM glucose, 30 minutes) followed by medium collection, incubation in KRBH (11 mM glucose, 30 minutes) followed by medium collection.

[3] = Plasma stability assay, human plasma; type: in vitro ADME; settings: for Ln (% Remaining): human plasma, 37°C, Figure 5A
Protocol: (§1) Pooled frozen plasma of CD-1 mice (n = 20; catalog MSE00PLK2M2N, Beijing Vital River Laboratory Animal Technology) or humans (n = 6, catalog […]2P2N, Bioreclamation IVT), equal numbers of males and females, was thawed in a 37°C water bath, and residual clots were removed by centrifugation (500g for 5 minutes). Plasma (98 μL) was aliquoted in each well of 96-well reaction plates using an Apricot automation workstation. WCDD301 (100 μM) or propantheline bromide (100 μM, as a positive control) was added (2 μL/well) to sets of wells assigned to blank or time points (T0, T10, T30, T60, and T120 minutes) and incubated at 37°C. At each time point, the reaction was stopped by adding stop solution (500 μL; a mixture of 200 ng/mL of tolbutamide and labetalol in acetonitrile), mixed thoroughly, sealed, shaken (20 minutes), and centrifuged (1,750g, 4°C, 20 minutes). A total of 150 μL of the supernatant from each well of the reaction plate was transferred to its corresponding bioanalysis plate for LC-MS/MS analysis. The remaining level (%) of the WCDD301 was calculated using the following equation: remaining (%) = (PAR at each time point/PAR at T0) × 100. PAR stands for the peak area ratio of the WCDD301 versus internal standard.

[4] = Plasma stability assay, CD-1 mouse plasma; type: in vitro ADME; settings: for Ln (% Remaining): mouse plasma, 37°C, Figure 5B
Protocol: as §1

diabetic NOD mice [5] = assay: Plasma insulin in NOD mice after treatment; type: in vivo, mouse; settings: WCDD301-treated diabetic NOD mice; Figure 6C
Protocol: (§2) Terminal blood was collected into microfuge tubes containing K2-EDTA (supplemented by 45 mM phenylmethylsulphonyl fluoride and 0.77 μM aprotinin) through cardiac puncture. Plasma was separated by centrifugation (2,000g for 10 minutes at 4°C) and kept at –80°C until analysis. Plasma samples with hemolysis were excluded from the study. […] Values of BUN, creatinine, ALB, ALT, and AST were determined by a Roche Cobas C501 Autoanalyzer as performed by the Washington University Diabetes Research Center Translational Diagnostics Core. Reference intervals of blood chemistry parameters for inbred NOD mice were extracted from the Mouse Phenome Database (https://phenome.jax.org/).

diabetic NOD mice [6] = assay: Plasma glucagon in NOD mice after treatment; type: in vivo, mouse; parameters: Plasma glucagon: unit not given beside the values
Protocol: as §2

diabetic NOD mice [7] = assay: Daily urine glucose in NOD mice; type: in vivo, mouse
Protocol: We preweighed WCDD301 into microfuge tubes and reconstituted it using deionized water. Using a 10 μL pipette tip, we placed the calculated dose of WCDD301 (at the volume range of 1–1.5 μL) within the center of pearls. WCDD301 was placed into pearls 30–45 minutes before administration. For oral administration of pearls, we designed an applicator using a disposable plastic transfer pipette and syringe plunger lubricated with olive oil. Food intake and body weight in each experimental group (diabetic WCDD301-treated, diabetic placebo-treated, and nondiabetic placebo-treated NOD mice) were monitored daily for 4 weeks. Urine glucose was measured from individually caged NOD mice (nondiabetic placebo treated n = 2, diabetic placebo treated n = 2, and diabetic WCDD301 treated n = 4, 21–23 weeks old) with metabolic cages. Urine glucose was monitored every 24 hours for 10 days by semiquantitative measurements (P-STICKS, Millpledge Veterinary).

diabetic NOD mice [8] = assay: Insulin tolerance test in NOD mice; type: in vivo, mouse; settings: WCDD301 dosing
Text: Following a 4-hour fast, nondiabetic placebo-treated (n = 4), diabetic placebo-treated (n = 4), and diabetic WCDD301-treated (n = 4) NOD female mice were intraperitoneally injected with insulin (Humulin-R; 0.75 U/kg, Eli Lilly and Company). […]

For `CC(=O)OCC(N)(COC(C)=O)COC(C)=O` [WCDD301, 2-(acetoxymethyl)-2-aminopropane-1,3-diyl diacetate], the “Relative secretion of insulin” value ([1]; 301 (1.5 µM), Glucose (1 mM), Figure 1G) was 0.28 and 0.38 and 0.3 and 0.32 and 0.23, the “Relative secretion of insulin” value ([1]; 301 (1.5 µM), Glucose (11 mM), Figure 1G) was 1.22 and 1.05 and 0.8 and 0.98 and 1.49 and the “Relative secretion of insulin” value ([1]; 301 (3 µM), Glucose (1 mM), Figure 1G) was 0.49 and 0.38 and 0.4 and 0.28 and 0.53. For the same compound, the “Relative secretion of insulin” value ([1]; 301 (3 µM), Glucose (11 mM), Figure 1G) was 0.67 and 1.1 and 0.98 and 1.25 and 0.63, the “Effect on insulin secretion” value ([1]; Figure 1G) was “without significant effects” and the “Effect on insulin secretion in presence of rhyncophylline” value ([1]; WCDD301 3 μM, Supplemental Figure 3) was “no significant effect on insulin secretion”. The “Effect on insulin secretion” value ([2]; islets from donors with long-standing T1D) was “no effect on the minimal residual insulin secretion”, the Secretion of insulin ([2]; 1 mM glucose) was 0.055 and 0.09 and the Secretion of insulin ([2]; 11 mM glucose) was 0.07 and 0.06. The half-life at 2 µM ([3]; both sexes, human, plasma) was 4.82 h, the “Stability in human plasma versus mouse plasma” value ([3]; human higher than mouse) was over 2.7 fold and the “Ln (% Remaining)” value ([3]; 10 min) was -0.03128. For the same compound, the “Ln (% Remaining)” value ([3]; 30 min) was -0.148, the “Ln (% Remaining)” value ([3]; 60 min) was 0.05816 and the “Ln (% Remaining)” value ([3]; 120 min) was 0.01827. For the same compound, the half-life at 2 µM ([4]; both sexes, CD-1, mouse, plasma) was 1.75 h, the “Ln (% Remaining)” value ([4]; 10 min) was -0.4 and the “Ln (% Remaining)” value ([4]; 60 min) was -0.55. For the same compound, the “Ln (% Remaining)” value ([4]; 120 min) was -0.94, the Plasma insulin (diabetic NOD mice [5]) was “Undetectable” and the Plasma glucagon (diabetic NOD mice [6]; WCDD301-treated diabetic NOD mice, per mouse, Figure 6B) was 22.15 and 11 and 44 and 25 and 47. The “Effect on plasma glucagon” value (diabetic NOD mice [6]; diabetic NOD mice) was “suppression of glucagon levels”, the “Daily urine glucose (Figure 7D)” value (diabetic NOD mice [7]; Diabetic, WCDD301 treated, Day 10) was 0 and the “Urine glucose, daily monitoring” value (diabetic NOD mice [7]; diabetic WCDD301-treated mice) was “phenotypes similar to nondiabetic placebo-treated mice”. For the same compound, the “Blood glucose in insulin tolerance test, Normalize with basal (0 min) (Figure 6E)” value (diabetic NOD mice [8]; 15 min) was 0.89 and 0.91 and 0.86 and 0.88, the “Blood glucose in insulin tolerance test, Normalize with basal (0 min) (Figure 6E)” value (diabetic NOD mice [8]; 30 min) was 0.67 and 0.69 and 0.65 and 0.68 and the “Blood glucose in insulin tolerance test, Normalize with basal (0 min) (Figure 6E)” value (diabetic NOD mice [8]; 45 min) was 0.67 and 0.74 and 0.62 and 0.66. The “Blood glucose in insulin tolerance test, Normalize with basal (0 min) (Figure 6E)” value (diabetic NOD mice [8]; 60 min) was 0.71 and 0.73 and 0.77 and 0.72, the “Blood glucose in insulin tolerance test, Normalize with basal (0 min) (Figure 6E)” value (diabetic NOD mice [8]; 90 min) was 0.7 and 0.8 and 0.75 and 0.96 and the “Blood glucose in insulin tolerance test, Normalize with basal (0 min) (Figure 6E)” value (diabetic NOD mice [8]; 120 min) was 0.89 and 0.85 and 0.9 and 0.93.
